Where two headings read alike, the source gives them in different places.
Experiments:
MRSP 16127 = assay: Time-killing curve, inoculum 10^6 CFU/ml (MIC 0.25 μg/ml); format: cell-based, Staphylococcus pseudintermedius
Experimental: (§1) The objective of this study is to assess in vitro the time-killing curves of oxyclozanide against four strains of Methicillin-Resistant Staphylococcus from dogs.
(§2) Two Methicillin-Resistant Staphylococcus aureus (MRSA) and two Methicillin-Resistant Staphylococcus pseudintermedius (MRSP) isolated from the clinics have been tested.
(§3) The assessment of time-killing curves has been realized by a broth macrodilution method (Mueller-Hinton II Broth).
(§4) Oxyclozanide is diluted in (DMSO) into sterile tubes in order to obtain the following concentrations from 800 to 6.25 μg/ml. Those concentrations and stock standard solution are then diluted (1/10) in Mueller-Hinton II Broth in order to obtain the following concentrations from […] (See Table 2).
(§5) Each operation is performed under sterile conditions. Each working standard solution (10*the final active ingredient concentration) is distributed in tubes (1 ml, for a final volume of 10 ml after addition of 9 ml of inoculum). One tube without active ingredient is used as growth control (Concentration=0).
(§6) Bacterial isolates are sub-cultured from one cryobead on Columbia agar supplemented with 5% of blood. Pure cultures are incubated during 18-24 hours at 37° C. Three to five isolated colonies of similar appearance are selected from a previous culture and transferred into tubes containing 9 ml of Mueller-Hinton II Broth. The broth is incubated during 12-18 hours at 37° C. 0.5 to 1 ml of this broth is inoculated to another Mueller-Hinton II Broth 9 ml tube which is incubated during 3 to 4 hours at 37° C. to reach the exponential growth phase. The bacterial inoculum grown exponential phase is suspended to an optical density of McFarland standard scale 0.5 equivalent to a bacterial density of 10^8 CFU/ml and then adjusted to a concentration of about 5.10^5 CFU/ml as indicated by the guideline CLSI M26-A and to a second inoculum tested: 10^6 CFU/ml.
(§7) 9 ml of bacterial inoculum grown to exponential phase is added to 1 ml of active ingredient (or Mueller Hinton II Broth for the growth control). Tubes are incubated at 35° C. during 24 hours.
(§8) At times 0, 2, 4, 6 and 24 hours, 100 μl of broth of each tube is sampled and diluted in microplates:
(§9) Each well is re-cultured by streaking 10 μl on Columbia agar supplemented with 5% of blood. Plates are incubated at 37° C. during 18-24 hours incubation. Thus, residual bacterial concentrations are determined (CFU/ml). Results are expressed in log10 values of CFU/ml over-time in broth. Due to the procedure used, the minimal bacterial concentration that can be assessed is 10^2 CFU/ml.

MRSP 16125 = assay: Time-killing curve, inoculum 10^6 CFU/ml (MIC 0.5 μg/ml); format: cell-based, Staphylococcus pseudintermedius
Experimental: as §1, §2, §3, §4, §5, §6, §7, §8, §9

[1] = system: Staphylococcus pseudintermedius no 15401 and no 15410; assay: MIC of Oxyclozanide, broth microdilution method; format: cell-based
Experimental: (§10) In this study, 2 Staphylococcus aureus and 2 Staphylococcus pseudintermedius were tested. These strains were chosen after determination of the Minimum Inhibitory Concentration (MIC) of Oxyclozanide using broth microdilution method.

[2] = system: Staphylococcus aureus no 16302 and no 16315; assay: MIC of Oxyclozanide, broth microdilution method; format: cell-based
Experimental: as §10

Which results are given for `O=C(Nc1cc(Cl)cc(Cl)c1O)c1c(O)c(Cl)cc(Cl)c1Cl` [Oxyclozanide]?
Counting results (MRSP 16127; 1 MIC, 0 h): 9.000E+05 CFU/ml; Counting results (MRSP 16127; 1 MIC, 2 h): 4.100E+05 CFU/ml; Counting results (MRSP 16127; 1 MIC, 4 h): 4.000E+06 CFU/ml; Counting results (MRSP 16127; 1 MIC, 6 h): 7.500E+06 CFU/ml; Counting results (MRSP 16127; 1 MIC, 24 h): 9.000E+07 CFU/ml; Counting results (MRSP 16127; 2 MIC, 0 h): 9.000E+05 CFU/ml; Counting results (MRSP 16127; 2 MIC, 2 h): 4.100E+05 CFU/ml; Counting results (MRSP 16127; 2 MIC, 4 h): 5.400E+05 CFU/ml; Counting results (MRSP 16127; 2 MIC, 6 h): 2.500E+06 CFU/ml; Counting results (MRSP 16127; 2 MIC, 24 h): 7.600E+06 CFU/ml; Counting results (MRSP 16127; 4 MIC, 0 h): 9.000E+05 CFU/ml; Counting results (MRSP 16127; 4 MIC, 2 h): 1.700E+04 CFU/ml; Counting results (MRSP 16127; 4 MIC, 4 h): 1.500E+03 CFU/ml; Counting results (MRSP 16127; 4 MIC, 6 h): 3.000E+02 CFU/ml; Counting results (MRSP 16127; 4 MIC, 24 h): 8.000E+02 CFU/ml; Counting results (MRSP 16127; 8 MIC, 0 h): 9.000E+05 CFU/ml; Counting results (MRSP 16127; 8 MIC, 2 h): 5.200E+03 CFU/ml; Counting results (MRSP 16127; 8 MIC, 4 h): 1.000E+02 CFU/ml; Counting results (MRSP 16127; 8 MIC, 6 h): 1.000E+02 CFU/ml; Counting results (MRSP 16127; 8 MIC, 24 h): 1.000E+02 CFU/ml; Counting results (MRSP 16127; 16 MIC, 0 h): 9.000E+05 CFU/ml; Counting results (MRSP 16127; 16 MIC, 2 h): 1.200E+03 CFU/ml; Counting results (MRSP 16127; 16 MIC, 4 h): 1.000E+02 CFU/ml; Counting results (MRSP 16127; 16 MIC, 6 h): 1.000E+02 CFU/ml; Counting results (MRSP 16127; 16 MIC, 24 h): 1.000E+02 CFU/ml; Time to obtain bactericidal effect at 4 MIC (MRSP 16127; 16127/10^6 CFU/ml, >=3 log10 decrease in CFU): 4 to 6 h; Counting results (MRSP 16127; ¼ MIC, 0 h): 9.000E+05 CFU/ml; Counting results (MRSP 16127; ¼ MIC, 2 h): 5.100E+05 CFU/ml; Counting results (MRSP 16127; ¼ MIC, 4 h): 4.200E+06 CFU/ml; Counting results (MRSP 16127; ¼ MIC, 6 h): 3.000E+07 CFU/ml; Counting results (MRSP 16127; ¼ MIC, 24 h): 4.900E+10 CFU/ml; Counting results (MRSP 16127; ½ MIC, 0 h): 9.000E+05 CFU/ml; Counting results (MRSP 16127; ½ MIC, 2 h): 4.300E+05 CFU/ml; Counting results (MRSP 16127; ½ MIC, 4 h): 3.700E+06 CFU/ml; Counting results (MRSP 16127; ½ MIC, 6 h): 2.100E+07 CFU/ml; Counting results (MRSP 16127; ½ MIC, 24 h): 3.400E+09 CFU/ml; Counting results (MRSP 16125; 1 MIC, 0 h): 1.000E+06 CFU/ml; Counting results (MRSP 16125; 1 MIC, 2 h): 1.000E+06 CFU/ml; Counting results (MRSP 16125; 1 MIC, 4 h): 1.500E+05 CFU/ml; Counting results (MRSP 16125; 1 MIC, 6 h): 1.000E+05 CFU/ml; Counting results (MRSP 16125; 1 MIC, 24 h): 4.100E+06 CFU/ml; Counting results (MRSP 16125; 2 MIC, 0 h): 1.000E+06 CFU/ml; Counting results (MRSP 16125; 2 MIC, 2 h): 1.600E+03 CFU/ml; Counting results (MRSP 16125; 2 MIC, 4 h): 1.000E+02 CFU/ml; Counting results (MRSP 16125; 2 MIC, 6 h): 1.000E+02 CFU/ml; Counting results (MRSP 16125; 2 MIC, 24 h): 1.000E+02 CFU/ml; Counting results (MRSP 16125; 4 MIC, 0 h): 1.000E+06 CFU/ml; Counting results (MRSP 16125; 4 MIC, 2 h): 5.000E+02 CFU/ml; Counting results (MRSP 16125; 4 MIC, 4 h): 1.000E+02 CFU/ml; Counting results (MRSP 16125; 4 MIC, 6 h): 1.000E+02 CFU/ml; Counting results (MRSP 16125; 4 MIC, 24 h): 1.000E+02 CFU/ml; Counting results (MRSP 16125; 8 MIC, 0 h): 1.000E+06 CFU/ml; Counting results (MRSP 16125; 8 MIC, 2 h): 1.000E+02 CFU/ml; Counting results (MRSP 16125; 8 MIC, 4 h): 1.000E+02 CFU/ml; Counting results (MRSP 16125; 8 MIC, 6 h): 1.000E+02 CFU/ml; Counting results (MRSP 16125; 8 MIC, 24 h): 1.000E+02 CFU/ml; Counting results (MRSP 16125; 16 MIC, 0 h): 1.000E+06 CFU/ml; Counting results (MRSP 16125; 16 MIC, 2 h): 1.000E+02 CFU/ml; Counting results (MRSP 16125; 16 MIC, 4 h): 1.000E+02 CFU/ml; Counting results (MRSP 16125; 16 MIC, 6 h): 1.000E+02 CFU/ml; Counting results (MRSP 16125; 16 MIC, 24 h): 1.000E+02 CFU/ml; Time to obtain bactericidal effect at 4 MIC (MRSP 16125; 16125/10^6 CFU/ml, >=3 log10 decrease in CFU): 2 h; Counting results (MRSP 16125; ¼ MIC, 0 h): 1.000E+06 CFU/ml; Counting results (MRSP 16125; ¼ MIC, 2 h): 1.500E+06 CFU/ml; Counting results (MRSP 16125; ¼ MIC, 4 h): 1.000E+07 CFU/ml; Counting results (MRSP 16125; ¼ MIC, 6 h): 1.000E+08 CFU/ml; Counting results (MRSP 16125; ¼ MIC, 24 h): 2.600E+09 CFU/ml; Counting results (MRSP 16125; ½ MIC, 0 h): 1.000E+06 CFU/ml; Counting results (MRSP 16125; ½ MIC, 2 h): 1.800E+06 CFU/ml; Counting results (MRSP 16125; ½ MIC, 4 h): 2.800E+06 CFU/ml; Counting results (MRSP 16125; ½ MIC, 6 h): 3.400E+06 CFU/ml; Counting results (MRSP 16125; ½ MIC, 24 h): 1.900E+08 CFU/ml; MIC ([1]; Staphylococcus pseudintermedius, no 15401, read-out: MIC): 0.125 µg/mL; MIC ([1]; no 15410): 0.125 µg/mL; MIC ([2]; Staphylococcus aureus, no 16302, read-out: MIC): 0.5 µg/mL; MIC ([2]; no 16315): 0.5 µg/mL
